Experimental data: the NIST ThermoML archive (doi:10.1021/je060116w)

Details: Hot wire method

FC(F)CC(F)(F)F [1,1,1,3,3-pentafluoropropane]
Gas
Details | thermal conductivity [W/m/K]
374.84 K, 1243 kPa | 0.01982
374.99 K, 997 kPa | 0.01966
375.13 K, 604.2 kPa | 0.01956
375.31 K, 1243 kPa | 0.01995
375.48 K, 997 kPa | 0.01969
375.71 K, 604.2 kPa | 0.01959
375.83 K, 1243 kPa | 0.02001
376.05 K, 997 kPa | 0.01976
376.31 K, 604.2 kPa | 0.01963
384.79 K, 1489.1 kPa | 0.0211
385.04 K, 998.9 kPa | 0.02061
385.2 K, 598.1 kPa | 0.02052
385.21 K, 1489.1 kPa | 0.02101
385.55 K, 998.9 kPa | 0.02067
385.68 K, 1489.1 kPa | 0.02112
385.76 K, 598.1 kPa | 0.02059
386.13 K, 998.9 kPa | 0.02072
386.35 K, 598.1 kPa | 0.0206
394.74 K, 1765.3 kPa | 0.02246
394.9 K, 1498.3 kPa | 0.02208
395.07 K, 602.5 kPa | 0.02148
395.09 K, 1004.6 kPa | 0.02149
395.16 K, 1765.3 kPa | 0.02251
395.36 K, 1498.3 kPa | 0.02216
395.52 K, 1765.3 kPa | 0.02258
395.58 K, 602.5 kPa | 0.02153
395.6 K, 1004.6 kPa | 0.02161
395.75 K, 1498.3 kPa | 0.02218
395.94 K, 602.5 kPa | 0.02147
396.04 K, 1004.6 kPa | 0.02168
404.55 K, 2269.8 kPa | 0.02483
404.75 K, 1999.2 kPa | 0.02362
404.85 K, 1500.7 kPa | 0.02277
404.89 K, 2269.8 kPa | 0.02475
405 K, 998.4 kPa | 0.02248
405.12 K, 604.3 kPa | 0.02248
405.14 K, 1999.2 kPa | 0.02364
405.29 K, 2269.8 kPa | 0.02484
405.3 K, 1500.7 kPa | 0.02285
405.48 K, 998.4 kPa | 0.02253
405.55 K, 1999.2 kPa | 0.02369
405.62 K, 604.3 kPa | 0.02249
405.78 K, 1500.7 kPa | 0.02302
406.02 K, 998.4 kPa | 0.0227
406.18 K, 604.3 kPa | 0.02253
414.76 K, 2496.6 kPa | 0.02664
414.88 K, 1998 kPa | 0.02456
415.04 K, 995.9 kPa | 0.02342
415.04 K, 1502.2 kPa | 0.02374
415.15 K, 604.1 kPa | 0.02337
415.25 K, 2496.6 kPa | 0.02694
415.45 K, 1998 kPa | 0.0246
415.64 K, 604.1 kPa | 0.02346
415.64 K, 1502.2 kPa | 0.02378
415.66 K, 2496.6 kPa | 0.02696
415.68 K, 995.9 kPa | 0.02355
415.92 K, 1998 kPa | 0.02467
416.18 K, 1502.2 kPa | 0.02399
416.19 K, 604.1 kPa | 0.02348
416.22 K, 995.9 kPa | 0.0236

Liquid
Details | thermal conductivity [W/m/K]
375.06 K | 0.0631
375.44 K | 0.06262
384.7 K | 0.06117
385.14 K | 0.0606
385.48 K | 0.05985
394.71 K | 0.05833
395.1 K | 0.05813
395.52 K | 0.05783
404.77 K | 0.05598
405.12 K | 0.05595
405.54 K | 0.05564
414.79 K | 0.05331
415.16 K | 0.05316
415.54 K | 0.0529
